Each structure is given as a SMILES string.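 Growth conditions: 96-well plates. Treatment: test compound, 48 hours, 5 concentrations. Analysis: linear interpolation between bracketing concentrations; unreached endpoints set to highest concentration. Here, GI50 denotes the concentration required for 50% inhibition of growth. TGI denotes the concentration required for complete inhibition of growth.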

This note sets out measurements from PubChem BioAssay (NCI).

Common to all, as to assay: NCI anticancer screen, dose series, 48 h
Assay [1] has as its system NCI-H522 lung.
For assay [2], the system named is U251 CNS.
The test system of assay [3] is K-562 leukemia.
Assay [4] has as its system A549 NSCLC.
Assay [5] relates to DMS 114 small cell lung.
Assay [6] relates to SF-539 CNS.
The test system of assay [7] is M19-MEL melanoma.
For assay [8], the system named is NCI-H460 lung.
The subject of assay [9] is KM12 colon.
Assay [10] concerns NCI/ADR-RES ovarian.

For `Cc1ccc(NC(=O)COC(=O)c2cccc3c(=O)c4ccccc4[nH]c23)cc1`, the TGI is 59.9 µM in [1]; above 100 µM in assay [2]; above 100 µM in assay [3]; above 100 µM in assay [4]; above 100 µM in assay [5]; above 100 µM in [6]. For the same compound, the TGI in [7], in assay [8] and in assay [9] was above 100 µM each time.
In the case of `COC(=O)c1c(C)cc2c(c1O)C1(O)C(=O)c3cc4c(c(O)c3C(=O)C1(OC)C(O)C2)C(=O)C=C(NC1OC(C)C(OC)C(O)C1OC)C4=O` (stereo not given), the TGI in assay [1] was 0.257 µM; in assay [2], 0.663 µM; in assay [3], 0.178 µM; in assay [4], 1.03 µM; in assay [5], 0.0295 µM; in [6], 0.2 µM. Besides, the results for the TGI in assay [7], in assay [8] and in assay [9] were 0.0516 µM, 0.435 µM and 0.562 µM, respectively.
Take `CN(C)CC(C)(C)C(/C=C/c1ccccc1)=N\Nc1ccccc1`: the TGI in [1] amounted to 23.9 µM; in assay [2] it was 13.4 µM; in assay [3], 0.828 µM; in assay [4], 4.19 µM; in [5], 21.8 µM; in [6], 0.897 µM. The TGI stood at 22.3 µM in assay [7], 17.8 µM in [8] and 26.6 µM in assay [9].
Consider `O=C1CCCC(=O)C1=C(O)CCCCCCCCCCc1ccccc1`, for which the TGI in assay [1] was 82.2 µM; in assay [2], above 100 µM; in assay [3], above 100 µM; in [4] it was above 100 µM; in [5], 53.4 µM; in assay [6], above 100 µM. Further, the TGI in [7] is 97.9 µM; in assay [8] it was above 100 µM; in [9] it was above 100 µM.
Consider `Cc1ccc([N+](=O)[O-])cc1NC(=O)C(=O)Cc1cc(=O)oc2cc(O)ccc12`, for which the TGI was above 100 µM in assay [1]; above 100 µM in assay [2]; above 100 µM in assay [3]; above 100 µM in assay [4]; 36.3 µM in [5]; above 100 µM in assay [6]. The TGI in [7], in [8] and in [9] was above 100 µM throughout.
With `Cc1cc(NS(=O)(=O)c2ccc(NC(=O)c3cccc4cc5ccccc5nc34)cc2)no1`, the TGI was determined as 33.8 µM in assay [1]; 75.5 µM in assay [2]; 50.6 µM in assay [3]; 56.2 µM in assay [4]; 49.2 µM in [5]; 33.3 µM in assay [6]. For the same compound, the TGI in assay [7] is 74.3 µM; in [8], 72.2 µM; in assay [9], 40.7 µM.
Take `N#CCc1ccc(/C(C#N)=C2/OC(=N)C(c3ccc(CC#N)cc3)C2=O)cc1` (stereo not given): the TGI in [1], in assay [3], in [4], in assay [5], in assay [6] and in assay [7] was above 100 µM in each case. This compound returned a TGI in assay [8] above 100 µM.
Turning to `Cc1ccc(/C=C/C(=O)c2ccc(N)cc2)c(C)c1`, the GI50 is 0.379 µM in [1]; 6.5 µM in [2]; 2.03 µM in [3]; 17.6 µM in assay [4]; 2.39 µM in assay [6]; 6.65 µM in assay [10]. For the same compound, the GI50 in [8] is 14.7 µM; in [9] it was 4.38 µM. The TGI in assay [1] was 1.67 µM; in assay [2], 19.3 µM; in [3] it was 4.84 µM; in assay [4] it was 37.5 µM; in assay [6] it was 5.45 µM; in assay [10], above 100 µM. Also, the figures for the TGI in assay [8] and in [9] were 33.8 µM and 16.8 µM, respectively.
For the compound `O=C1C2C(C(=O)N1c1ccccc1)C1(c3ccccc3)OC2(c2ccccc2)c2ccccc21` (stereo not given), the TGI in [1], in assay [2], in assay [3], in assay [4], in [5] and in assay [6] was above 100 µM in each case. Besides, the TGI in assay [7], in assay [8] and in [9] was above 100 µM each time.
Consider `Oc1ccc2c3c1OC1C(=NN=C4CCC5(O)C6Cc7ccc(O)c8c7C5(CCN6CC5CC5)C4O8)CCC4(O)C(C2)N(CC2CC2)CCC314` (stereo not given), for which the TGI in assay [1] is 57.4 µM; in assay [2], 32.1 µM; in assay [3], 48.2 µM; in assay [4] it was 42.3 µM; in assay [5] it was 44.6 µM; in assay [6], above 55.5 µM. Besides, the TGI in assay [7] was determined as 40.9 µM; in [8], 46.1 µM; in assay [9] it was 40.2 µM.
Consider `CC(=O)c1c(O)ccc2c(C)c(C(=O)O)oc12`, for which the GI50 in assay [1], in assay [2], in assay [3], in [4], in assay [6] and in assay [10] was above 100 µM in each case. Besides, the GI50 in assay [8] and in [9] was above 100 µM in each case. In addition, the TGI in [1], in assay [2], in assay [3], in [4], in assay [6] and in assay [10] was above 100 µM each time. The TGI in [8] and in [9] was above 100 µM each time.
For `NC(N)=N/N=C(/c1ccccc1)c1ccc(Cl)cc1`, the GI50 in assay [1] is 12.5 µM; in assay [2], 9.4 µM; in assay [3], 2.95 µM; in [4] it was 15.5 µM; in assay [6], 18.8 µM; in assay [10] it was 24.4 µM. For the same compound, the GI50 is 9.93 µM in [8] and 5.53 µM in [9]. Also, the TGI in assay [1] is 71.1 µM; in assay [2], above 100 µM; in [3], above 100 µM; in assay [4], above 100 µM; in [6] it was 53.5 µM; in assay [10], 85.9 µM. The results for the TGI in assay [8] and in assay [9] were 44 µM and above 100 µM, respectively.
As for `Cc1[nH]n(-c2ccc(S(=O)(=O)O)cc2)c(=O)c1N=Nc1ccccc1`, the TGI in assay [1], in assay [2], in [3], in [4], in assay [6] and in assay [10] was above 100 µM throughout. The TGI in assay [8] and in assay [9] was above 100 µM each time.
